This note sets out measurements from patent US12447117B2, “Composition and method of enhancing skin barrier using the same” (AMOREPACIFIC CORPORATION, priority 2018, dated 2025).

SMILES strings stand for the structures.

Experiment [1] deals with DSC1 (Desmocollin-1) gene expression in normal human epidermal keratinocytes (NHEK). In words: Expression level of desmosome constituent factor DSC1 in UVB-irradiated NHEK (TAQMAN real-time PCR). Type of experiment: cell-based. Particulars: UVB 25 mJ/cm^2, 10 nM compound, harvested on fourth day of culture, versus UV-irradiated cells (FIG. 2). As to the method:
(§1) Normal human epidermal keratinocytes (NHEK) were cultured in a 6-well plate incubator. 24 hours later, the normal human epidermal keratinocytes (NHEK) were cultured by replacing it with phosphate-buffered saline (PBS) and irradiating it with UVB (25 mJ/cm^2) and adding 10 nM of a compound represented by Chemical Formula 1-1 (Cayman Chemical) to the NHEK culture medium. On the fourth day of the culture, cells were harvested to separate RNA and synthesize cDNA through RT-PCR (a reverse transcriptional polymerase chain reaction), and the synthesized cDNA was used to perform TAQMAN™ real-time PCR and measure gene expression levels of a keratinocyte differentiation marker, KRT10, and a desmosome constituent factor, DSC1, and the results are shown in FIGS. 1 and 2.

In experiment [2] the test system is KRT10 (keratin 10) gene expression in normal human epidermal keratinocytes (NHEK). In words: Expression level of keratinocyte differentiation marker KRT10 in UVB-irradiated NHEK (TAQMAN real-time PCR). Type of experiment: cell-based. The note with it: UVB 25 mJ/cm^2, 10 nM compound, harvested on fourth day of culture, versus UV-irradiated cells (FIG. 1). As to the method: as §1
A general note: In qPCR the cycle at which signal appears reflects the starting amount.

Consider `CC/C=C\C[C@H](O)/C=C/C=C\C=C\C=C\[C@@H](O)[C@@H](O)C/C=C\CCC(=O)O` [Chemical Formula 1-1], for which, in experiment [1], the “gene expression level of DSC1” value was “increased again”. Further, the “gene expression level of KRT10 (keratin 10)” value in experiment [2] is recorded as “increased again”.
